# Key:
# OATP1B1 = target: T1, OATP1B1 (Homo sapiens, UniProt Q9Y6L6); conditions: 5 min, 5 µM
# T1 sequence (Q9Y6L6 1-691): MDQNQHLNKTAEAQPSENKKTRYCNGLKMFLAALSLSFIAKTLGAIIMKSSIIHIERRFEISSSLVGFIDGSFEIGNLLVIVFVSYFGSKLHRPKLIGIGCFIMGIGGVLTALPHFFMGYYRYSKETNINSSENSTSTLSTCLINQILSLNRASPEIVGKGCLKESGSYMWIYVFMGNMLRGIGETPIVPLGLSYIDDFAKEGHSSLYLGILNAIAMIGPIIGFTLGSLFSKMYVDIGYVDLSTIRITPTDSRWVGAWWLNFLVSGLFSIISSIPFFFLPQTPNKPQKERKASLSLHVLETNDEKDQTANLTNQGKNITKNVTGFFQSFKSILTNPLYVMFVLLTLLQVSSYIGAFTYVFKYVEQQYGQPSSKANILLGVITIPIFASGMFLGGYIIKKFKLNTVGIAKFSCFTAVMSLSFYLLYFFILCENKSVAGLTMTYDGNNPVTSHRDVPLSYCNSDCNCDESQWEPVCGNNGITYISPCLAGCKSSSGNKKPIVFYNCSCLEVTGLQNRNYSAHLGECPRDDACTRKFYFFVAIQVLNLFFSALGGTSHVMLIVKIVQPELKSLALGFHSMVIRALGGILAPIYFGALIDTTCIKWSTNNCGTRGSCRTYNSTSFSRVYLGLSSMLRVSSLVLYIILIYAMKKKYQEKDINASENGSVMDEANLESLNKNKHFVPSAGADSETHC
# Method: Expressing OATP1B1/OATP1B3 or MOCK HEK293 cells were utilized to evaluate whether TET is a substrate of these two SLC transporters. Cell culture was performed as mentioned above. Cells were seeded on 96-well plates at the density of 0.8 × 10^5 cells/well. The culture medium was replaced with a medium containing 5 mM sodium butyrate for 24 h before the transport study to enhance the expression of transporters. For the transport assay, the DMEM media were removed and the cells were washed with pre-warmed Krebs–Henseleit buffer twice (0.1 mL/well). The second washing buffer was kept in the wells and the plate was incubated at 37 °C for 5 min before the uptake assay was initiated. […] The incubation solution was removed and the cells were washed with ice-cold transportation buffer three times (0.1 mL/well). […]
# In the uptake study of TET by OATP1B1 and OATP1B3 expressing the HEK293 cell line, the uptake clearance (U) of the substrate was calculated according to Equation (5), the transporter-mediated uptake ratio (UR) was calculated by dividing the uptake clearance from transporter-expressing cells to that from the mock cells according to Equation (6), and the inhibition ratio (IR) was calculated according to Equation (7), where p represents the protein content and T is the duration of the incubation time. […]
# CYP3A = conditions: cited from earlier work
# HEK293-MOCK cells = assay: Uptake by MOCK (empty vector) HEK293 cells; conditions: TET 5 μM, 5 min
# Method: Expressing OATP1B1/OATP1B3 or MOCK HEK293 cells were utilized to evaluate whether TET is a substrate of these two SLC transporters. Cell culture was performed as mentioned above. Cells were seeded on 96-well plates at the density of 0.8 × 10^5 cells/well. The culture medium was replaced with a medium containing 5 mM sodium butyrate for 24 h before the transport study to enhance the expression of transporters. For the transport assay, the DMEM media were removed and the cells were washed with pre-warmed Krebs–Henseleit buffer twice (0.1 mL/well). The second washing buffer was kept in the wells and the plate was incubated at 37 °C for 5 min before the uptake assay was initiated. […] The incubation solution was removed and the cells were washed with ice-cold transportation buffer three times (0.1 mL/well). A total of 0.1 mL pure water was added to each well to lyse the cells by repeated freezing and thawing (−196 °C–37 °C, three times). The cell lysate was collected and stored at −40 °C for LC-MS/MS analysis and protein measurement.
# In the uptake study of TET by OATP1B1 and OATP1B3 expressing the HEK293 cell line, the uptake clearance (U) of the substrate was calculated according to Equation (5), the transporter-mediated uptake ratio (UR) was calculated by dividing the uptake clearance from transporter-expressing cells to that from the mock cells according to Equation (6), and the inhibition ratio (IR) was calculated according to Equation (7), where p represents the protein content and T is the duration of the incubation time. (5) U=Clysate/p×T (6) UR=U/UMOCK (7) IR=(1−Uwith inhibitor−Umock with inhibitor/Uwithout inhibitor−Umock without inhibitor)×100
compound,measurement,setting,value
"COc1ccc2cc1Oc1ccc(cc1)C[C@H]1c3cc(c(OC)cc3CCN1C)Oc1c(OC)c(OC)cc3c1[C@H](C2)N(C)CC3 [TET, Tetrandrine]",Inhibition Ratio,OATP1B1,11.1
same,Uptake Ratio,OATP1B1,1.2
same,"fm (CYP3A, major isoform toward TET)",CYP3A,> 90%
same,Uptake Clearance,HEK293-MOCK cells; MOCK (OATP1B1 set),131 ± 11.3 nM/min/mg Protein
same,Uptake Clearance,HEK293-MOCK cells; MOCK (OATP1B3 set),126 ± 10.9 nM/min/mg Protein
same,Uptake Clearance,HEK293-MOCK cells; MOCK+RIF (OATP1B1 set),117 ± 12.8 nM/min/mg Protein
same,Uptake Clearance,HEK293-MOCK cells; MOCK+RIF (OATP1B3 set),119 ± 8.03 nM/min/mg Protein
